Assay results taken from US9597382B2, “KNTC2 peptides and vaccines containing the same” (ONCOTHERAPY SCIENCE, INC., priority 2013, dated 2017).

Columns and labels:
[1] = system: peptide-pulsed C1R-A02 cells; test: IFN-gamma ELISPOT assay on CTLs induced with KNTC2 peptides; format: cell-based, human; conditions: CTLs induced with peptide-pulsed DCs from HLA-A*0201 positive donor; peptide-pulsed C1R-A02 cells vs control wells
Description: Monocyte-derived dendritic cells (DCs) were used as antigen-presenting cells to induce cytotoxic T lymphocyte (CTL) responses against peptides presented on human leukocyte antigen (HLA). DCs were generated in vitro as described elsewhere (Nakahara S et al., Cancer Res 2003 Jul. 15, 63(14): 4112-8). Specifically, peripheral blood mononuclear cells isolated from a normal volunteer (HLA-A*0201 positive) by Ficoll-Paque plus (Pharmacia) solution were separated by adherence to a plastic tissue culture dish (Becton Dickinson) so as to enrich them as the monocyte fraction. The monocyte-enriched population was cultured in the presence of 1000 IU/ml of granulocyte-macrophage colony-stimulating factor (R&D System) and 1000 IU/ml of interleukin (IL)-4 (R&D System) in AIM-V Medium (Invitrogen) containing 2% heat-inactivated autologous serum (AS). After 7 days of culture, the cytokine-induced DCs were pulsed with 20 micro g/ml of each of the synthesized peptides in the presence of 3 micro g/ml of beta 2-microglobulin for 3 hr at 37 degrees C. in AIM-V Medium. The generated cells appeared to express DC-associated molecules, such as CD80, CD83, CD86 and HLA class II, on their cell surfaces (data not shown). These peptide-pulsed DCs were then inactivated by X ray-irradiated (20 Gy) and mixed at a 1:20 ratio with autologous CD8+ T cells, obtained by positive selection with CD8 Positive Isolation Kit (Dynal). These cultures were set up in 48-well plates (Corning); each well contained 1.5×10^4 peptide-pulsed DCs, 3×10^5 CD8+ T cells and 10 ng/ml of IL-7 (R&D System) in 0.5 ml of AIM-V/2% AS medium. Three days later, these cultures were supplemented with IL-2 (CHIRON) to a final concentration of 20 IU/ml. On day 7 and 14, the T cells were further stimulated with the autologous peptide-pulsed DCs. The DCs were prepared each time by the same way described above. CTL was tested against peptide-pulsed C1R-A02 cells after the 3rd round of peptide stimulation on day 21 (Tanaka H et al., Br J Cancer 2001 Jan. 5, 84(1): 94-9; Umano Y et al., Br J Cancer 2001 Apr. 20, 84(8): 1052-7; Uchida N et al., Clin Cancer Res 2004 Dec. 15, 10(24): 8577-86; Suda T et al., Cancer Sci 2006 May, 97(5): 411-9; Watanabe T et al., Cancer Sci 2005 August, 96(8): 498-506).
(§1) To examine specific CTL activity, IFN-gamma ELISPOT assay and IFN-gamma ELISA were performed. Peptide-pulsed C1R-A02 cells (1×10^4/well) were prepared as stimulator cells. Cultured cells in 48-well plate, CTL lines and CTL clones were used as responder cells. IFN-gamma ELISPOT assay and IFN-gamma ELISA were performed under the manufacturer's procedure.

[2] = system: peptide-pulsed C1R-A02 cells; test: IFN-gamma ELISA of CTL lines; format: cell-based, human; conditions: target cells pulsed with corresponding peptide vs without peptide pulse
Method: CTLs were expanded in culture using the method similar to the one described by Riddell et al. (Walter E A et al., N Engl J Med 1995 Oct. 19, 333(16): 1038-44; Riddell S R et al., Nat Med 1996 Feb. 2(2): 216-23). A total of 5×10^4 CTLs were suspended in 25 ml of AIM-V/5% AS medium with 2 kinds of human B-lymphoblastoid cell lines, inactivated by Mitomycin C, in the presence of 40 ng/ml of anti-CD3 monoclonal antibody (Pharmingen). One day after initiating the cultures, 120 IU/ml of IL-2 were added to the cultures. The cultures were fed with fresh AIM-V/5% AS medium containing 30 IU/ml of IL-2 on days 5, 8 and 11 (Tanaka H et al., Br J Cancer 2001 Jan. 5, 84(1): 94-9; Umano Y et al., Br J Cancer 2001 Apr. 20, 84(8): 1052-7; Uchida N et al., Clin Cancer Res 2004 Dec. 15, 10(24): 8577-86; Suda T et al., Cancer Sci 2006 May, 97(5): 411-9; Watanabe T et al., Cancer Sci 2005 August, 96(8): 498-506).
as §1

[3] = system: C1R-A02 cells pulsed with corresponding peptide; test: IFN-gamma ELISA of CTL clones established by limiting dilution; format: cell-based, human
Method: The dilutions were made to have 0.3, 1, and 3 CTLs/well in 96 round-bottomed micro titer plate (Nalge Nunc International). CTLs were cultured with 1×10^4 cells/well of 2 kinds of human B-lymphoblastoid cell lines, 30 ng/ml of anti-CD3 antibody, and 125 IU/ml of IL-2 in a total of 150 micro 1/well of AIM-V Medium containing 5% AS. 50 micro 1/well of IL-2 were added to the medium 10 days later to reach a final concentration of 125 IU/ml IL-2. CTL activity was tested on the 14th day, and CTL clones were expanded using the same method as described above (Uchida N et al., Clin Cancer Res 2004 Dec. 15, 10(24): 8577-86; Suda T et al., Cancer Sci 2006 May, 97(5): 411-9; Watanabe T et al., Cancer Sci 2005 August, 96(8): 498-506).
as §1

[4] = system: COS7 cells transfected with KNTC2 and HLA-A*0201; test: Specific CTL activity against target cells expressing KNTC2 and HLA-A*0201; format: cell-based, African green monkey
Description: The cDNA encoding an open reading frame of target genes or HLA-A*0201 was amplified by PCR. The PCR-amplified product was cloned into expression vector. The plasmids were transfected into COS7, which is the target genes and HLA-A*0201-null cell line, using lipofectamine 2000 (Invitrogen) according to the manufacturer's procedure. After 2 days from transfection, the transfected cells were harvested with versene (Invitrogen) and used as the stimulator cells (5×10^4 cells/well) for CTL activity assay.
The established CTL line raised against KNTC2-A02-9-184 (SEQ ID NO: 7) peptide was examined for the ability to recognize target cells that express KNTC2 and HLA-A*0201 molecule. COS7 cells transfected with both the full length of KNTC2 and HLA-A*0201 gene (a specific model for the target cells that express KNTC2 and HLA-A*0201 gene) were prepared as a stimulator cells, and COS7 cells transfected with either full length of KNTC2 or HLA-A*0201 were used as the controls.

Sequence	Peptide specific CTL activity (IFN-gamma production) by IFN-gamma ELISPOT [1]	IFN-gamma production of CTL lines by IFN-gamma ELISA [2]	IFN-gamma production of CTL clones by IFN-gamma ELISA [3]	CTL activity of CTL line against COS7 cells expressing both KNTC2 and HLA-A*0201 ([4]; COS7 transfected with both full length KNTC2 and HLA-A*0201)	CTL activity of CTL line against control COS7 cells ([4]; COS7 transfected with either full length KNTC2 or HLA-A*0201)
KIFTFLYGFL (a peptide derived from KNTC2) [SEQ ID NO: 41, 10mer peptide derived from KNTC2, start position 127]	potent IFN-gamma production				
GLNEEIARV (a peptide derived from KNTC2) [SEQ ID NO: 1, 9mer peptide derived from KNTC2, start position 330]	no specific IFN-gamma production				
FLYGFLCPS (a peptide derived from KNTC2) [SEQ ID NO: 2, 9mer peptide derived from KNTC2, start position 131]	potent IFN-gamma production	potent IFN-gamma production	Potent IFN-gamma production		
AILDQKLNGL (a peptide derived from KNTC2) [SEQ ID NO: 53, 10mer peptide derived from KNTC2, start position 322]	potent IFN-gamma production				
ALVWLIDCI (a peptide derived from KNTC2) [SEQ ID NO: 7, 9mer peptide derived from KNTC2, start position 184]	potent IFN-gamma production	potent IFN-gamma production	Potent IFN-gamma production	potent CTL activity	no significant specific CTL activity was detected
LVWLIDCIKI (a peptide derived from KNTC2) [SEQ ID NO: 68, 10mer peptide derived from KNTC2, start position 185]	potent IFN-gamma production				
KIFTFLYGF (a peptide derived from KNTC2) [SEQ ID NO: 17, 9mer peptide derived from KNTC2, start position 127]	potent IFN-gamma production				
IVAALVWLI (a peptide derived from KNTC2) [SEQ ID NO: 3, 9mer peptide derived from KNTC2, start position 181]	potent IFN-gamma production	potent IFN-gamma production	Potent IFN-gamma production		
